Assay results: patent US7357944B2, “Liposomal analgesic drug compositions prepared in GMV using an ammonium sulfate gradient” (New York University, priority 1998, dated 2008)
Read-outs that look alike come from different tables or passages of the source.

Legend:
mice [1] = settings: mouse, in vivo
Protocol: (§1) Analgesia regressed within two hours (see FIG. 13).
To determine the effect on overall body temperature of this treatment, the rectal temperature was measured in all animals cooled over the site of injection (ipsalateral) or over the contralateral abdomen, using both GMV-encapsulated bupivacaine and nonencapsulated (plain) bupivacaine. […] For FIG. 14A, cooling was initiated at zero hours (with administration) and discontinued at nine hours; for FIG. 14B, cooling was initiated at zero hours and discontinued at one hour. There were no significant differences observed as a function of the site of cooling. […] Animals in the GMV group (FIG. 14A) returned to baseline body temperature within about 10 minutes after cessation of cooling.

male Swiss-Webster mice = test: Analgesia (sensory block) after subcutaneous injection, response to cutaneous electrical stimulation; assay type: in vivo; settings: 0.15 ml at 0.5%
Protocol: Analgesia was assessed in male Swiss-Webster mice, as described in Example 2, using response to cutaneous electrical stimulation. Prior to administering analgesic, the control vocalization threshold (current required to produce a vocalization response) was determined.
For testing, 150 μl of test solution was injected subcutaneously over the abdomen, and sensory block was assessed at regular intervals, i.e., 15 min for 0.5% BUP formulations and 30 min for 1% and 2% formulations. Failure to vocalize in response to the threshold current was taken as evidence of analgesia. Testing was terminated when two successive stimuli provoked a vocalization. Duration of analgesia was taken as the time from injection to the last stimulus at which no vocalization occurred.
as §1
The Institutional Animal Care and Use Committee approved all experiments. Male Swiss-Webster mice weighing 28±3 g were used. Animals had free access to food and water, and were maintained on a 12 hour dark-light cycle. Prior to testing, the hair overlying the abdomen was shaved. Analgesia was assessed using response to cutaneous electrical stimulation. […] The vocalization threshold was assessed prior to testing, and testing was carried out as described above.

[2] = pH-dependent aqueous solubility of BUP in 250 mM ammonium sulfate; assay type: physicochemical; settings: more concentrated solutions, pH higher than about 6
Protocol: In the present case, the liposomes were incubated with a 50 mg/ml solution of BUP HCl for 45 minutes at 60° C. During this process, the extraliposomal pH should be maintained at a pH less than about 6, e.g. about 5.5, to ensure BUP solubility and prevent precipitation. […] The data was produced by adding various levels of BUP, as indicated, to 250 mM ammonium sulfate at differing pH's. The samples were vortexed and centrifuged, and the amount of dissolved BUP in the supernatant was determined. […] Again, aqueous solubility substantially decreases between pH 6 and 8.

mice [3] = settings: mouse, in vivo, sc
Protocol: (§2) In a control group, mice were injected with 0.15 ml nonliposomal bupivacaine at a concentration of 0.5%, the highest normally tolerated. Cooling was applied either over the injection site or over the abdomen contralateral to the injection site.

[4] = BUP partition between octanol and aqueous ammonium sulfate at various pH; assay type: physicochemical; settings: for logD: octanol/aqueous ammonium sulfate, read-out: BUP octanol/(NH4)2(SO4) partition coefficient (converted)
mice [5] = test: Tolerability of BUP concentration injected subcutaneously; settings: 0.15 ml injected
Protocol: as §2

SMILES: CCCCN1CCCCC1C(=O)Nc1c(C)cccc1C (stereo not drawn) [BUP, bupivacaine]
- delayed return to normal body temperature after cessation of cooling (mice [1]): 25 to 35 min
- time in which analgesia regressed (male Swiss-Webster mice; s.c., mice, with or without cooling (FIG. 13)): two
- effect of skin cooling (about 22° C.) on analgesia (male Swiss-Webster mice; cooling at injection site or contralateral vs no cooling): no difference
- aqueous solubility of BUP (FIG. 2) [2]: large amounts of BUP precipitated
- toxicity (mice [3]): proved toxic
- logD ([4]; pH 2): 0.0253
- logD ([4]; pH 4): -0.42
- logD ([4]; pH 6): -0.456
- logD ([4]; pH 8): 1.18
- BUP, mg/ml in (NH4)2(SO4) ([4]; pH 2): 2.30 mg/mL
- BUP, mg/ml in octanol ([4]; pH 2): 2.45 mg/mL
- BUP, mg/ml in (NH4)2(SO4) ([4]; pH 4): 3.32 mg/mL
- BUP, mg/ml in octanol ([4]; pH 4): 1.25 mg/mL
- BUP, mg/ml in (NH4)2(SO4) ([4]; pH 6): 3.62 mg/mL
- BUP, mg/ml in octanol ([4]; pH 6): 1.28 mg/mL
- BUP, mg/ml in (NH4)2(SO4) ([4]; pH 8): 0.32 mg/mL
- BUP, mg/ml in octanol ([4]; pH 8): 4.90 mg/mL
- highest concentration normally tolerated (mice [5]): 0.5%
